Reference: article PMC11390726, “Automated design of multi-target ligands by generative deep learning” (Nature Communications, 2024)
Entries after “also recorded” stand apart in the source; their conditions may differ.

How the values were obtained:
sEH = target: T1, sEH (Homo sapiens, UniProt P34913); test: sEH enzyme activity assay with fluorogenic substrate PHOME; type: biochemical; settings: mean, n ≥ 3
T1 construct: His tag (inferred from HisTrap purification with imidazole elution); made in house; own inference
T1 sequence (P34913 1-555): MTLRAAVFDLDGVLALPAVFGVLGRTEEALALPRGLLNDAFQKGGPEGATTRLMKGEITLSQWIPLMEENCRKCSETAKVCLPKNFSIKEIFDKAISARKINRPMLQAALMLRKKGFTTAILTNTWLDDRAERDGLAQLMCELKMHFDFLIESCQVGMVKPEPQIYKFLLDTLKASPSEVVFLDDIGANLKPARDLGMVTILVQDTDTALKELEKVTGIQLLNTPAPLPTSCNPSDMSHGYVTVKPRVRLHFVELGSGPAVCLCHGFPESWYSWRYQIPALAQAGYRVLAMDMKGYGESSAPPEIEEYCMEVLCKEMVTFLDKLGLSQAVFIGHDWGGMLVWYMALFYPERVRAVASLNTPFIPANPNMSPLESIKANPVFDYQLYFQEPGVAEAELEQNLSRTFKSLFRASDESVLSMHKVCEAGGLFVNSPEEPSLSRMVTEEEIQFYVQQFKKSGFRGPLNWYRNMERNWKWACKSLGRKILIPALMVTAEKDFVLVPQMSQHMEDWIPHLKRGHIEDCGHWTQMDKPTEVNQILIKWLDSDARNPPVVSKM
Excerpt: (§1) Compound 7 was originally designed with tert-butyloxy motif which was replaced by tert-butyl for improved chemical stability. The dual ligand candidates were characterized in functional assays for the targets of interest using cellular Gal4-hybrid reporter gene assays[43] to determine FXR, THRβ and PPARδ modulation and an enzyme activity assay[44] with the fluorogenic substrate PHOME to test sEH inhibition (Table 1). In vitro characterization of the CLM designed dual FXR/sEH modulators 1–3 confirmed engagement of both targets by all three compounds with sub-micromolar to low micromolar potencies. […] All designed PPARδ/sEH modulators (7–9) were confirmed as dual ligands of the intended targets. 7 emerged as remarkably potent sEH inhibitor endowed with micromolar PPARδ agonist activity.
Soluble epoxide hydrolase (sEH) was purified as described by Hahn et al.[68] and Lukin et al.[69], respectively. Protein expression was carried out in 500 ml ZYP5052 autoinduction medium containing Kanamycin (100 mg/L) with lactose uptake-dependent induction. The fermentation procedure started at 37 °C and 200 rpm until the OD600 reached approximately 1.0. Then the temperature was reduced to 16 °C. After 24–36 h the cells (OD600 ≈ 15.0) were harvested by centrifugation at 5000 × g (4 °C, 20 min). Pellets were resuspended in a resuspension buffer containing Tris (50 mM), NaCl (0.5 M) and MgCl2 (10 mM) at pH 8 and sonicated twice for 15 s on ice. The sonicated suspension was centrifuged (18,000 × g, 30 min, 4 °C) and the supernatant was ultracentrifuged (100,000 × g, 1 h 10 min, 4 °C). The ultracentrifugation supernatant was loaded on a 5 ml HisTrap® FF (GE Healthcare, München, Germany) column at a flow rate of 2 ml/min and washed with washing buffer containing Tris (50 mM), NaCl (0.5 M), MgCl2 (10 mM), imidazole (20 mM) and DTT (3 mM) at pH 8, and eluted at 120 mM imidazole. The fractions containing hsEH after SDS-PAGE fraction analysis were pooled. The identity of hsEH was confirmed by Western Blotting and hsEH hydrolase activity assay. The inhibitory potency of the compounds was determined using a fluorescence-based enzyme activity assay in which PHOME (3-phenyl-cyano(6-methoxy-2-naphthalenyl)methylester-2-oxiraneacetic acid) is metabolized by sEH hydrolase towards a fluorescent naphthalene aldehyde. Dilution series of the compounds were incubated for 30 min with recombinant sEH (final protein concentration 3 nM). Subsequently, the fluorogenic substrate PHOME at final concentration of 50 μM was added, and the fluorescence was measured every minute for 45 min using a Tecan plate reader (ex: 360 nm, em: 465 nm; bandwidth 35 nm). Inhibition in percent was plotted against the logarithmic test compound concentration and IC50-values were calculated using the “log(Inhibitor) vs. Response – Variable slope (four parameters)” equation in GraphPad Prism 7.

AT1 = target: T2, AT1 (Homo sapiens, UniProt P30556); test: IP-One assay for AT1 in stably transfected CHO-K1 cells; type: cell-based; settings: cellular IP-One assay; mean, n ≥ 3
T2 construct: expressed in transfected cells
T2 sequence (P30556 1-359): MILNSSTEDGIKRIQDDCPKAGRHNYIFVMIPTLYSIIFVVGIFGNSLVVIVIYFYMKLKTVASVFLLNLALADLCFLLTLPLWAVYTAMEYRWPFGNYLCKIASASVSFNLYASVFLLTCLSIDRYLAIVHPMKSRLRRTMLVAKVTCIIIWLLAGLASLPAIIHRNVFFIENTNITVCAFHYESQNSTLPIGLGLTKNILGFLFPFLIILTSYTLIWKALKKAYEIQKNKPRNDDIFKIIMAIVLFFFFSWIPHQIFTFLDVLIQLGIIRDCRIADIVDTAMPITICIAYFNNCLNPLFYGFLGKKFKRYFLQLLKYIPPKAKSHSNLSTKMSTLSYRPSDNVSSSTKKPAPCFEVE
Protocol: (§2) CHO-K1 cells (DSMZ, ACC110) were cultured at 5% CO2 and 37 °C in full growth medium (Ham’s F-12 medium supplemented with 10% fetal calf serum (FCS), penicillin (100 U/mL) and streptomycin (100 µg/mL)). For harvesting cells were incubated with Trypsin/EDTA. IP-One assay for AT1 and FFAR1. To investigate the ligand dependent activation of the two GPCRs, inositol mono-phosphate (IP-One) accumulation was monitored using an HTRF based displacement assay between FRET acceptor coupled IP-One and Terbium cryptate coupled anti-IP-One antibody (IP-One assay kit, Cisbio Bioassays, Codolet, France). AT1: the IP-One assay for AT1 was performed according to the protocol published by Hernandez-Olmos et al.[66] In brief, by using the sleeping beauty method a CHO-K1 cell line was generated which stably overexpresses AT1 isoform 1 and GNA11 (G-protein subunit α 11) as well as cells only overexpressing the GNA11 without any GPCR, as control. Cells were seeded into white tissue culture 384-well plates (Greiner Bio-One, Frickenhausen, Germany) at 15,000 cells/well and incubated overnight at 37 °C and 5% CO2. […] Antagonist activity of compounds was measured with parallel stimulation with 10 nM [Val5]-Angiotensin II. […] A full dose-response curve with FFAR1 reference agonist GW9508 was measured as control for assay performance. […]

PPARδ = target: T3, PPARδ (Homo sapiens, UniProt Q03181); test: Gal4-hybrid reporter gene assay PPARδ; type: cell-based; settings: mean, n ≥ 3
T3 construct: expressed in transfected cells; host or cells: HEK293T
T3 sequence (Q03181 211-439 limits assumed): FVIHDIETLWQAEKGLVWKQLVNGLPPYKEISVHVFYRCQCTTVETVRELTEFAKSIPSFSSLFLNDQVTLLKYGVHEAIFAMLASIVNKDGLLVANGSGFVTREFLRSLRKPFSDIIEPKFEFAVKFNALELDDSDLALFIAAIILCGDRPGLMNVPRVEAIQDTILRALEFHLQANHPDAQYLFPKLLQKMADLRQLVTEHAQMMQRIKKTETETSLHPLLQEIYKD
Excerpt: as §1
HEK293T cells (ATCC, CRL-1573) were cultured in Dulbecco’s modified eagle medium (DMEM), high glucose, supplemented with 10% FCS, sodium pyruvate (1 mM), penicillin (100 U/mL), and streptomycin (100 µg/mL) to 70–80% confluence at 37 °C and 5% CO2 and seeded in clear 96-well plates with a density of 40,000 cells/well. After 24 h, the medium was changed to Opti-MEM without supplements. Transient transfection was performed using Lipofectamine LTX reagent (Invitrogen, Carlsbad, CA, USA) according to the manufacturer’s protocol with pFR-Luc (100 ng/well) as reporter plasmid, pRL-SV40 (2 ng/well) for normalization of transfection efficiency and cell growth, and one pFA-CMV-hNR-LBD clone coding for the hinge region and ligand binding domain (LBD) of the NR of interest. […] After overnight (14–16 h) incubation, luminescence was measured using the Dual-Glo® Luciferase Assay System (Promega, Madison, WI, USA) according to the manufacturer’s protocol with a Tecan Spark® 10 M multimode microplate reader. Relative light units (RLU) for normalization of transfection efficiency and cell growth were calculated by dividing firefly luminescence by renilla luminescence and multiplication by 1000. […]

FFAR1 = target: T4, FFAR1 (Homo sapiens, UniProt O14842); test: IP-One assay for FFAR1 in stably transfected CHO-K1 cells; type: cell-based; settings: cellular IP-One assay; mean, n ≥ 3
T4 construct: expressed in transfected cells
Protocol: as §2

T4 sequence (O14842 whole entry): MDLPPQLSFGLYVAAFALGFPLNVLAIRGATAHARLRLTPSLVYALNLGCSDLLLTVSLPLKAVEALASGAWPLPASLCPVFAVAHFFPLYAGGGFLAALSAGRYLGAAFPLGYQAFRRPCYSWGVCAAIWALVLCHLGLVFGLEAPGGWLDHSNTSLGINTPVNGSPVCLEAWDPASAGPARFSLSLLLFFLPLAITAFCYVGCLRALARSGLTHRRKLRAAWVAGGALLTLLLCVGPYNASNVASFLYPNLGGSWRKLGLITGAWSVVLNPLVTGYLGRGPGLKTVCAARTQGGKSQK

SMILES	IC50 (sEH) [nM]	AT1: activity (AT1)	PPARδ: fold act. at 80 µM (PPARδ) [fold]	further results
O=C(O)c1ccc(OC2CCCN(C(=O)NCc3ccc(Cl)cc3Cl)CC2)cc1 (stereo not drawn) [Compound 10]	20	inactive		
O=C(O)CCc1ccc(OC2CCCN(C(=O)NCc3c(Cl)cc(Cl)cc3Cl)CC2)cc1 (stereo not drawn) [Compound 8]	200		6.7	
CC(C)(C)c1ccc(NC(=O)N[C@H]2CC[C@H](Oc3ccc(CCC(=O)O)cc3)CC2)cc1 [Compound 7]	17			EC50 (PPARδ): 10000 nM
O=C(O)CCc1ccc(OC2CCN(C(=O)NCc3c(Cl)cc(Cl)cc3Cl)CC2)cc1 [Compound 9]	270		3.0	

Continued, in another order:

IC50 (sEH) [nM]	AT1: activity (AT1)	PPARδ: fold act. at 80 µM (PPARδ) [fold]	SMILES	further results
61			CCC(c1ccc(C(=O)O)cc1)c1cccc(NC(=O)Nc2ccc(OC(F)(F)F)cc2)c1 (stereo not drawn) [Compound 11]	FFAR1: activity (FFAR1): inactive
	no effect; also recorded: inactive		CC#CC(CC(=O)O)c1ccc(OCc2cccc(-c3ccccc3C(=O)O)c2)cc1 (stereo not drawn) [Compound 12]	EC50 (FFAR1): 8500 nM
